Earlier results in patent US11590127B2, “Gastro-resistant formulation containing posaconazole” (ALFRED E. TIEFENBACHER (GMBH & CO. KG), priority 2015, dated 2023).

CC[C@@H]([C@H](C)O)n1ncn(-c2ccc(N3CCN(c4ccc(OC[C@@H]5CO[C@@](Cn6cncn6)(c6ccc(F)cc6F)C5)cc4)CC3)cc2)c1=O [Posaconazole]
aqueous solubility: low aqueous solubility | temperature above which it degrades (thermal degradation): above 160 °C
